# From US4562275A, “Antitumor platinum complexes” (priority 1984, dated 1985)
# Several values for one entry are separate records, joined by “and”; a condition that tells them apart may be missing. Equal values may be shown once.
# Columns and labels:
# L1210 leukemia = test: Antitumor activity vs transplantable L1210 leukemia (ip) in mice; format: in vivo, mouse; settings: for Max % T/C: dying mice only; for OD (optimum dose): optimum dose from the L1210 test
# Source text: The antitumor activities of the complexes provided by the present invention have been determined against L-1210 leukemia in the mouse and, for certain of the complexes, against other mouse tumor systems.
# (§1) Results of antitumor testing against the transplantable mouse tumors L1210 leukemia, cisplatin-resistant L1210 leukemia, B16 melanoma, Madison 109 lung carcinoma and colon 26 carcinoma are shown below in Tables 1 and 2.
# In Table 1 are shown the maximum % T/C values obtained for each platinum compound versus L1210 leukemia using both single and qd 1→5 dosing.
# (§2) The methods used to evaluate the platinum complexes for antitumor activity and toxicity in animals are summarized below. These methods have been published elsewhere in more detail (Rose, et al. Cancer Treat. Rep. 66: 135, 1982; Florczyk, et al, Cancer Treat. Rep. 66: 187, 1982).
# (§3) The parent line of L1210 leukemia (L1210) was maintained in DBA/2 mice by ip transplantation of 10^5 cells at weekly intervals. […] B16 malenoma (B16) was maintained by sc transplant in C57BL/6 mice every two weeks. Madison 109 lung carcinoma (M109) and colon 26 carcinoma (C26) were maintained by sc transplant in BALB/c mice every two weeks.
# (§4) The level and route of tumor inoculum, host, group size, and drug treatment schedule and route for each tumor type are summarized below in Table 6. Each complex was evaluated initially against L1210 at 4 dose levels per schedule selected on the basis of lethality data provided by the Wadley Institute. In subsequent experiments with the other tumors the complexes were evaluated at a minimum of 3 dose levels selected on the basis of maximum tolerated levels in the L1210 experiments. Cisplatin-treated groups and a saline-treated (or untreated) tumor control group were included in each experiment.
# (§5) The L1210 experiments were terminated on Day 30 whereas the B16, C26 and M109 experiments were terminated on Day 60 (some C26 experiments were terminated on Day 75). Mice alive at the termination day were autopsied and considered cured if no tumor was visible. […] A complex was considered active if it produced a % T/C value ≥125.
# [1] = test system: L1210/CDDP (cisplatin resistant line of L1210 leukemia); test: Antitumor activity vs cisplatin-resistant L1210 leukemia (L1210/CDDP) in mice; format: in vivo, mouse; settings: for Cures/total / O.D. (optimal dose): Day 1; for Max % T/C: Day 1, dying mice only
# Source text: Results of antitumor testing against the transplantable mouse tumors L1210 leukemia, cisplatin-resistant L1210 leukemia, B16 melanoma, Madison 109 lung carcinoma and colon 26 carcinoma are shown below in Tables 1 and 2. […]
# as §2, §3, §4, §5
# B16 melanoma = test: Antitumor activity vs ip B16 melanoma in mice; format: in vivo, mouse; design: O.D.: unit not given here; settings: for O.D.: ip B16 (3×; 9×); for Max. % T/C: ip B16 (3×; 9×): q4d × 3 or qd 1-9, ip, dying mice only
# Source text: as §2, §3
# The level and route of tumor inoculum, host, group size, and drug treatment schedule and route for each tumor type are summarized below in Table 6. Each complex was evaluated initially against L1210 at 4 dose levels per schedule selected on the basis of lethality data provided by the Wadley Institute.
# as §5
# C26 carcinoma = test: Antitumor activity vs ip C26 (colon 26) carcinoma in mice; format: in vivo, mouse; design: O.D.: unit not given here; settings: for O.D.: ip C26 (2×; 4×); for Max. % T/C: ip C26 (2×; 4×): q3d × 2 or qd 1-4, ip, dying mice only
# Source text: as §1, §2, §3, §4, §5
# 8 q3d^b × 2 or qd 1-4, ip
# M109 carcinoma = test: Antitumor activity vs ip M109 (Madison 109 lung) carcinoma in mice; format: in vivo, mouse; design: O.D.: unit not given here; settings: for O.D.: ip M109 (2×; 4×); for Max. % T/C: ip M109 (2×; 4×): q3d × 2 or qd 1-4, ip, dying mice only
# Source text: as §1, §2, §3, §4, §5
# 8 q3d^a × 2 or qd 1-4, ip
# BDF1 mice [2] = test: Nephrotoxicity: effect on blood urea nitrogen (BUN) in BDF1 mice; settings: for BUN↑, Mouse: effect relative to cisplatin
# Description: The other compounds were in such short supply that they were tested for effects on BUN values using the optimum dose (O.D.) from the L1210 test for dose selection.
# The toxicity studies were done in male BDF1 mice (25-29 gm) and castrated male Fitch ferrets (1-1.5 kg).
# The complexes that were active against L1210 were evaluated for nephrotoxicity by determining their effects on blood urea nitrogen (BUN) levels in mice. Groups of 40-50 mice/experiment were bled from the retro-orbital plexus and individual BUN values determined by a modified urease method using a Centrifichem System 400. The test complex, or saline for controls, was given at several dose levels (5-10 mice/dose) in single ip injections. The highest dose of the complex usually corresponded to its LD50 value or 1.5 times its optimal single dose in the L1210 experiment. At least two lower doses were included to evaluate dose-related effects. The BUN values were measured 4 and 7 days after dosing. BUN values ≥30 mg% were considered indicative of drug-induced nephrotoxicity.
# ferret = test: Emetic effects (and lethality) in the ferret; format: in vivo, castrated male Fitch ferrets; settings: for No. With Emesis/No. tested: 6 h observation
# Description: Selected complexes were evaluated for emetic effects in ferrets. […] The time to the first emetic episode (retching and expulsion of vomitus) and the number of episodes were recorded. […] Subsequent test doses were selected based on the emetic response and lethality of the initial dose.
# BDF1 mice [3] = test: Deaths (D.14) in the BUN test in BDF1 mice; format: in vivo, mouse
# [4] = L1210, single dose Day 1, ip, (a), (b) determinations
# [5] = L1210, single dose Day 1, ip, dose giving the Max % T/C, same order
SMILES,"O.D. (optimal dose) (L1210 leukemia; L1210, QD 1 → 5, ip)","Max % T/C (L1210 leukemia; L1210, QD 1 → 5, ip)",Max % T/C (L1210 leukemia; [4]),O.D. (optimal dose) (L1210 leukemia; [5]),OD (optimum dose) (L1210 leukemia),Cures/total [1],O.D. (optimal dose) [1],Max % T/C [1],O.D. (B16 melanoma),Max. % T/C (B16 melanoma),O.D. (C26 carcinoma),Max. % T/C (C26 carcinoma),O.D. (M109 carcinoma),Max. % T/C (M109 carcinoma),Incidence of BUN > 30 mg % (BDF1 mice [2]; 30 mg/kg ip),"BUN↑, Mouse (BDF1 mice [2])",Deaths D.14 (BDF1 mice [3]; 30 mg/kg ip),other results
"N[C@@H]1CCCC[C@H]1N.O=C([O-])CC(=O)C(=O)[O-].[Pt+2] (relative stereo) [Example 2, oxaloacetato trans(-)-1,2-diaminocyclohexane platinum(II)]",7.5 mg/kg/inj,243%,214% and 217%,30 mg/kg/inj and 40 mg/kg/inj,30 mg/kg/ip,4/6,24 mg/kg/inj,194%,2,150%,10,143%,12,156%,0/5,0,0/5,Incidence of BUN > 30 mg % (BDF1 mice [2]; 45 mg/kg ip): 0/4; Emesis Episodes (ferret; 16 mg/kg iv): 3; Emesis onset in responding animals (ferret; 16 mg/kg iv): 41 min; No. With Emesis/No. tested (ferret; 16 mg/kg iv): 1/1; Deaths D.14 (BDF1 mice [3]; 45 mg/kg ip): 1/5
"CC(=O)CC(=O)[O-].CC(=O)CC(=O)[O-].N[C@@H]1CCCC[C@H]1N.[Pt+2] (relative stereo) [Example 4, bis(acetoacetato) trans(-)-1,2-diaminocyclohexane platinum(II)]",5 mg/kg/inj,214%,200% and 207%,20 mg/kg/inj and 18 mg/kg/inj,20 mg/kg/ip,–,12 mg/kg/inj,163%,1,150%,5,120%,8,119%,0/5,0,0/5,"Cures/total (L1210 leukemia; L1210, QD 1 → 5, ip): 1/6; Incidence of BUN > 30 mg % (BDF1 mice [2]; 20 mg/kg ip): 0/5; Deaths D.14 (BDF1 mice [3]; 20 mg/kg ip): 0/5"
"N[C@@H]1CCCC[C@H]1N.[O]=[Cr](=[O])([O-])[O-].[Pt+2] (relative stereo) [Example 9, chromato trans(-)-1,2-diaminocyclohexane platinum(II)]",6 mg/kg/inj and 12 mg/kg/inj,143% and 214%,150% and 200%,24 mg/kg/inj and 48 mg/kg/inj,48 mg/kg/ip,–,–,–,6,172%,24,106%,20,119%,–,0,–,Incidence of BUN > 30 mg % (BDF1 mice [2]; 48 mg/kg ip): 0/5; Incidence of BUN > 30 mg % (BDF1 mice [2]; 72 mg/kg ip): 0/5; Deaths D.14 (BDF1 mice [3]; 48 mg/kg ip): 0/5; Deaths D.14 (BDF1 mice [3]; 72 mg/kg ip): 0/5
"N[C@@H]1CCCC[C@H]1N.O=C([O-])CCC(=O)C(=O)[O-].[Pt+2] (relative stereo) [Example 14, 2-ketoglutarato trans(-)-1,2-diaminocyclohexane platinum(II)]",16 mg/kg/inj,250%,214% and 193%,16 mg/kg/inj,–,2/6,12 mg/kg/inj,169%,3,135%,–,–,–,–,–,–,–,–
"N[C@@H]1CCCC[C@H]1N.[O-]B([O-])O.[Pt+2] [Example 1, borato trans(-)-1,2-diaminocyclohexane platinum(II)]",2 mg/kg/inj,243%,214% and 242%,16 mg/kg/inj and 8 mg/kg/inj,16 mg/kg/ip,2/6,8 mg/kg/inj,188%,1,150%,5,134%,2,147%,–,0,–,Incidence of BUN > 30 mg % (BDF1 mice [2]; 16 mg/kg ip): 0/5; Incidence of BUN > 30 mg % (BDF1 mice [2]; 24 mg/kg ip): 0/3; Deaths D.14 (BDF1 mice [3]; 16 mg/kg ip): 0/5; Deaths D.14 (BDF1 mice [3]; 24 mg/kg ip): 3/5
"Cc1cn(C2CC(O)C(COP(=O)([O-])[O-])O2)c(=O)[nH]c1=O.NC1CCCCC1N.[Pt+2] (stereo not drawn) [Example 6, thymidylato trans(-)-1,2-diaminocyclohexane platinum(II)]",10 mg/kg/inj,221%,200% and 207%,40 mg/kg/inj and 45 mg/kg/inj,40 mg/kg/ip,–,20 mg/kg/inj,175%,6,177%,36,109%,12,95%,–,0,–,"Incidence of BUN > 30 mg % (BDF1 mice [2]; 40 mg/kg ip): 0/5; Incidence of BUN > 30 mg % (BDF1 mice [2]; 60 mg/kg ip): 0/5; Emesis Episodes (ferret; 32 mg/kg iv): 13.5; Emesis onset in responding animals (ferret; 32 mg/kg iv): 17.5 min; No. With Emesis/No. tested (ferret; 32 mg/kg iv (lethal dose)): 2/2; Lethal dose (ferret; ferret, doses marked * = Lethal dose): 32 mg/kg iv; Deaths D.14 (BDF1 mice [3]; 40 mg/kg ip): 0/5; Deaths D.14 (BDF1 mice [3]; 60 mg/kg ip): 0/5"
